Measured values published in paper PMC7044277 (Nature Communications, 2020).
Values joined by “and” are separate entries in the source; they are usually repeats but may differ in a detail not shown here. Identical values can stand only once.

What was measured:
Format in all cases: cell-based
[1] = biological target: 320 non-olfactory GPCRs (Homo sapiens, UniProt P21918)
[2] = biological target: 320 non-olfactory GPCRs (Homo sapiens, UniProt P41143); conditions: receptor OPRD1; replicate values, Fig_4g
320 non-olfactory GPCRs (Homo sapiens, UniProt P41143), sequence (P41143 whole entry): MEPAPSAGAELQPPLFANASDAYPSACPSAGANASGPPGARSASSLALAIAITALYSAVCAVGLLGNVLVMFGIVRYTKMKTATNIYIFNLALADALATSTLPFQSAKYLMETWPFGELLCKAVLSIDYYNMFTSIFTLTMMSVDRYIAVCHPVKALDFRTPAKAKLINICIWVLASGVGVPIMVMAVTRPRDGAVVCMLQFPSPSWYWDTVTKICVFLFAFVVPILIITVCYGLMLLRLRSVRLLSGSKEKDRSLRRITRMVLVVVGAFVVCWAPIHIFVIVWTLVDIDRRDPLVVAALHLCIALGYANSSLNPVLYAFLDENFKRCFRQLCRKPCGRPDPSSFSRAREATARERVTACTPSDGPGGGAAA

[3] = biological target: T1, 320 non-olfactory GPCRs (Homo sapiens, UniProt Q15761); conditions: receptor NPY5R; replicate values, Fig_4g
T1 construct: expressed in transfected cells; host or cells: HTLA cells
T1 sequence (Q15761 whole entry): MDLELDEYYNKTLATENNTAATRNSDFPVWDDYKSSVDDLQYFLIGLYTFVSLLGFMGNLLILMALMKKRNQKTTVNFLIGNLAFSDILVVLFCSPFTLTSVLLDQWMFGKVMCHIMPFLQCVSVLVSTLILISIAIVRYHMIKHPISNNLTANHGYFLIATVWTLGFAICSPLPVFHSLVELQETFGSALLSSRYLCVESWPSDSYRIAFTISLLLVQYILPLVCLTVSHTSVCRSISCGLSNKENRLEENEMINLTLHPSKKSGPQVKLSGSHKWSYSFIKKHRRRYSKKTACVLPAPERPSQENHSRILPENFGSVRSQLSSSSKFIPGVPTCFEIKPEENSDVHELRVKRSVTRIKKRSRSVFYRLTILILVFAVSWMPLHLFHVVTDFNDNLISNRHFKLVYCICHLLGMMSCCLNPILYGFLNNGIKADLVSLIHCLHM

[4] = biological target: T2, 320 non-olfactory GPCRs (Homo sapiens, UniProt Q96LB2); conditions: receptor MRGPRX1; replicate values, Fig_4g
T2 construct: expressed in transfected cells; host or cells: HTLA cells
T2 sequence (Q96LB2 whole entry): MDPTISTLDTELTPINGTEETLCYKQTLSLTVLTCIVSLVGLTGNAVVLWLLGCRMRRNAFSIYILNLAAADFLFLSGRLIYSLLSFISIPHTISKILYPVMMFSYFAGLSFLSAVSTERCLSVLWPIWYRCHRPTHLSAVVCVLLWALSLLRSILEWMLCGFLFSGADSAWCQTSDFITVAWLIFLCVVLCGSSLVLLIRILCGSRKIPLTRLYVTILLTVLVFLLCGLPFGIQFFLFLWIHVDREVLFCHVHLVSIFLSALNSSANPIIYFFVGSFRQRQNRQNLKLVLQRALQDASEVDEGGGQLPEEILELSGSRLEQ
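For Fold of Basal in this document: compound tested at 1 µM final concentration.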
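For GPCRome agonism screen response in this document: fold over basal response of each receptor without drug.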

320 non-olfactory GPCRs (Homo sapiens, UniProt P21918), sequence (P21918 whole entry): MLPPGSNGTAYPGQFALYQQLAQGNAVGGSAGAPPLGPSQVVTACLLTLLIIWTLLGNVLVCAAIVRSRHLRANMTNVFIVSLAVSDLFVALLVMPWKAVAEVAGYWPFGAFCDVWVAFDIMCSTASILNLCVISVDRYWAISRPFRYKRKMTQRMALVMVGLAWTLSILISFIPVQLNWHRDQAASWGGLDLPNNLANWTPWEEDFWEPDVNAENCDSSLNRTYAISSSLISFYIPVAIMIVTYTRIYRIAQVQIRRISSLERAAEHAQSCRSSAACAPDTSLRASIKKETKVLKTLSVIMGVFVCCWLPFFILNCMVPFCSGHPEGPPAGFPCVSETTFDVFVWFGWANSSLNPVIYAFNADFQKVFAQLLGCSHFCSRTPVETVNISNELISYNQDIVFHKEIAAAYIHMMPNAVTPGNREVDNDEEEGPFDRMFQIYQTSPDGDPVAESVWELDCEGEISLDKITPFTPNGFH

## CCOc1cccc2cc(C(C)NCC3(O)CCCCC3)oc12 (stereo not shown) [O4LE6]
[1]
  Fold of Basal: 1.173 and 0.6004 and 0.7155 and 0.7884
[2]
  GPCRome agonism screen response: 1.015 and 0.7396 and 0.6746 and 0.921
[3]
  GPCRome agonism screen response: 1.549 and 1.454 and 1.619 and 1.735
[4]
  GPCRome agonism screen response: 1.163 and 1.233 and 1.345 and 0.8039
